US20110173718A1, “HERBICIDE TOLERANT PLANTS” (SYNGENTA CROP PROTECTION, INC., priority 2008, published 2011)

How the values were obtained:
Arabidopsis HST = biological target: T1, Arabidopsis HST (Arabidopsis thaliana, UniProt Q1ACB3); assay: HST total extraction (non TLC) assay, recombinant Arabidopsis HST from insect cells; assay type: biochemical
T1 construct: GST (factor Xa cleavage site) (N); made in house; host or cells: Sf9 insect cells (baculovirus, pAcG3X), membrane fraction
T1 sequence (Q1ACB3 70-386): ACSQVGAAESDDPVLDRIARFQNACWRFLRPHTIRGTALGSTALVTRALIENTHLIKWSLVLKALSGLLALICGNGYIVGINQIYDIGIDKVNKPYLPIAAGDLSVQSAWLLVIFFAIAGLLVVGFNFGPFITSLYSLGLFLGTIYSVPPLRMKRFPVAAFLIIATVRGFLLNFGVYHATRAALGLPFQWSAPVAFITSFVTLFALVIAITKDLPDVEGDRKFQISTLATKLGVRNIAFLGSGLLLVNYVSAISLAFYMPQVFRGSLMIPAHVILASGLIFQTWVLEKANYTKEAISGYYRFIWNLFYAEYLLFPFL

weeds [1] = assay: Glasshouse weed control, HST inhibitors alone and with A22, pre-emergence; assay type: in vivo; settings: 336 h, 14 DAT; for pest or weed control at 15.625 g/ha: HST inhibitor rate 15.625 g/ha; for pest or weed control at 62.5 g/ha: HST inhibitor rate 62.5 g/ha; for pest or weed control at 250 g/ha: HST inhibitor rate 250 g/ha
Protocol: (§1) In a further test, the results of which are depicted in tables 18 and 19, weed seeds are planted out in trays containing 50% peat/50% John Innes no. 3 soil and grown in the glass house at 24-27 C day; 18-21 C night and approximately a 15 h photoperiod. Humidity is ˜65% and light levels at bench level are up to 2 mmol/m^2. Again all spray chemicals are dissolved in 0.2% X77 surfactant and sprayed from a boom on a track sprayer moving at 2 mph with the nozzle set about 2 inches above the plant tops. The spray volume is […]. Sprays are carried out both pre-emergence and post-emergence over small plants at about 7-12 d post-emergence. Plants are assessed at 14 DAT with herbicidal damage scored on a scale from 0 to 100%. The HPPD inhibiting herbicide is compound A22 (4-hydroxy-3-[[2-(2-methoxyethoxy)methyl]-6-(trifluoromethyl)-3-pyridinylicarbonyl]-bicyclo[3.2.1]oct-3-en-2-one) which is sprayed at 2 g/ha both alone and in mixture with various HST herbicides. Results and spray rates are depicted in Tables 18 and 19. Again the Colby formula has been used to calculate synergy scores observed following treatment with the mixture based on the results obtained with the single components alone. Positive synergy is observed between the HPPD herbicide and a wide variety of HST inhibitor herbicides applied both pre and postemergence across a variety of weeds.

weeds [2] = assay: Glasshouse weed control, HST inhibitors alone and with A22, post-emergence; assay type: in vivo; settings: 336 h, 14 DAT, single replicate, read-out: % control score, Obs; for pest or weed control at 15.625 g/ha: 15.625 g/ha alone; for pest or weed control at 62.5 g/ha: 62.5 g/ha alone; for pest or weed control at 250 g/ha: 250 g/ha alone
Protocol: as §1

[3] = BRAPL, read-out: BRAPL Obs, % control score
[4] = PANMI, read-out: PANMI Obs, % control score
[5] = SIDSP, read-out: SIDSP Obs, % control score
[6] = Digitaria sanguinalis, DIGSA, read-out: DIGSA Obs, % control score
[7] = Echinochloa crus-galli, ECHCG, read-out: ECHCG Obs, % control score
[8] = Setaria faberi, SETFA, read-out: SETFA Obs, % control score

| Structure (SMILES) | Estimated IC50 (ppm) (Arabidopsis HST) | pest or weed control at 15.625 g/ha (weeds [1]; [3]) [%] | pest or weed control at 62.5 g/ha (weeds [1]; [3]) [%] | pest or weed control at 250 g/ha (weeds [1]; [3]) [%] | pest or weed control at 15.625 g/ha (weeds [1]; [4]) [%] | pest or weed control at 62.5 g/ha (weeds [1]; [4]) [%] | pest or weed control at 250 g/ha (weeds [1]; [4]) [%] | pest or weed control at 15.625 g/ha (weeds [1]; [5]) [%] | pest or weed control at 62.5 g/ha (weeds [1]; [5]) [%] | pest or weed control at 250 g/ha (weeds [1]; [5]) [%] | pest or weed control at 15.625 g/ha (weeds [1]; [6]) [%] | pest or weed control at 62.5 g/ha (weeds [1]; [6]) [%] | pest or weed control at 250 g/ha (weeds [1]; [6]) [%] | pest or weed control at 15.625 g/ha (weeds [1]; [7]) [%] | pest or weed control at 62.5 g/ha (weeds [1]; [7]) [%] | pest or weed control at 250 g/ha (weeds [1]; [7]) [%] | pest or weed control at 15.625 g/ha (weeds [1]; [8]) [%] | pest or weed control at 62.5 g/ha (weeds [1]; [8]) [%] | pest or weed control at 250 g/ha (weeds [1]; [8]) [%] | pest or weed control at 15.625 g/ha (weeds [2]; BRAPL) [%] | other results |
| --- | --- | --- | --- | --- | --- | --- | --- | --- | --- | --- | --- | --- | --- | --- | --- | --- | --- | --- | --- | --- | --- |
| Cn1c(=O)c(-c2c(Cl)cccc2C(F)(F)F)c(O)c2nccnc21 [Compound 2.16] | 78 | 0 | 5 | 50 | 0 | 0 | 40 | 0 | 0 | 0 | 0 | 0 | 0 | 0 | 15 | 60 | 0 | 10 | 45 | 10 | pest or weed control at 62.5 g/ha (weeds [2]; BRAPL): 30%; pest or weed control at 250 g/ha (weeds [2]; BRAPL): 70%; pest or weed control at 15.625 g/ha (weeds [2]; PANMI): 5%; pest or weed control at 62.5 g/ha (weeds [2]; PANMI): 40%; pest or weed control at 250 g/ha (weeds [2]; PANMI): 70%; pest or weed control at 15.625 g/ha (weeds [2]; SIDSP): 5%; pest or weed control at 62.5 g/ha (weeds [2]; SIDSP): 40%; pest or weed control at 250 g/ha (weeds [2]; SIDSP): 50%; pest or weed control at 15.625 g/ha (weeds [2]; Digitaria sanguinalis, DIGSA): 0%; pest or weed control at 62.5 g/ha (weeds [2]; Digitaria sanguinalis, DIGSA): 2%; pest or weed control at 250 g/ha (weeds [2]; Digitaria sanguinalis, DIGSA): 40%; pest or weed control at 15.625 g/ha (weeds [2]; Echinochloa crus-galli, ECHCG): 2%; pest or weed control at 62.5 g/ha (weeds [2]; Echinochloa crus-galli, ECHCG): 15%; pest or weed control at 250 g/ha (weeds [2]; Echinochloa crus-galli, ECHCG): 50%; pest or weed control at 15.625 g/ha (weeds [2]; Setaria faberi, SETFA): 1%; pest or weed control at 62.5 g/ha (weeds [2]; Setaria faberi, SETFA): 30%; pest or weed control at 250 g/ha (weeds [2]; Setaria faberi, SETFA): 65% |
| O=c1c(-c2cc(Cl)ccc2C(F)(F)F)c(O)c2nccnc2n1CC(F)F [Compound 2.19] | 6 | 0 | 10 | 40 | 0 | 0 | 60 | 0 | 2 | 10 | 0 | 0 | 20 | 0 | 50 | 90 | 0 | 5 | 60 | 20 | pest or weed control at 62.5 g/ha (weeds [2]; BRAPL): 70%; pest or weed control at 250 g/ha (weeds [2]; BRAPL): 80%; pest or weed control at 15.625 g/ha (weeds [2]; PANMI): 40%; pest or weed control at 62.5 g/ha (weeds [2]; PANMI): 70%; pest or weed control at 250 g/ha (weeds [2]; PANMI): 85%; pest or weed control at 15.625 g/ha (weeds [2]; SIDSP): 15%; pest or weed control at 62.5 g/ha (weeds [2]; SIDSP): 30%; pest or weed control at 250 g/ha (weeds [2]; SIDSP): 50%; pest or weed control at 15.625 g/ha (weeds [2]; Digitaria sanguinalis, DIGSA): 30%; pest or weed control at 62.5 g/ha (weeds [2]; Digitaria sanguinalis, DIGSA): 50%; pest or weed control at 250 g/ha (weeds [2]; Digitaria sanguinalis, DIGSA): 70%; pest or weed control at 15.625 g/ha (weeds [2]; Echinochloa crus-galli, ECHCG): 30%; pest or weed control at 62.5 g/ha (weeds [2]; Echinochloa crus-galli, ECHCG): 45%; pest or weed control at 250 g/ha (weeds [2]; Echinochloa crus-galli, ECHCG): 75%; pest or weed control at 15.625 g/ha (weeds [2]; Setaria faberi, SETFA): 30%; pest or weed control at 62.5 g/ha (weeds [2]; Setaria faberi, SETFA): 60%; pest or weed control at 250 g/ha (weeds [2]; Setaria faberi, SETFA): 80% |
